SMILES strings stand for the structures.

A short description of this data set: gradient 5% acetonitrile 3 min, to 50% in 2 min, to 85% in 15 min, held 3 min, 100 µL/min. The note with it: column: Zorbax Extend-C18 2.1 x 50 mm; eluents: water / acetonitrile, 0.1% formic acid. In short, it runs like this: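 Standards, all pure, were combined into mixtures of ~100 molecules and run at 100 μL/min on a Zorbax Extend-C18 column (2.1 × 50 mm, 1.8 μm) with water and acetonitrile, each containing 0.1% formic acid. A coupled quadrupole time-of-flight mass spectrometer operated in positive and negative ionization mode. Retention time values come from computationally picked adduct peaks, each inspected manually.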
As to `Cc1cccc(OCc2nc(-c3cccc(-c4csc(C)n4)c3)no2)c1`, the RP-LC retention time was 1250 s.
For `O=C(Cn1c(=O)cc(-c2nc(C3CC3)no2)c2ccccc21)Nc1cccc(F)c1` the value was 952 s; for `CCCC(=O)Nc1ccc2nc(N3CCN(CC)CC3)cc(C)c2c1`, 560 s; for `Cc1cc(N2CCCC2)nc(N2CCN(C(=O)c3ccccc3Br)CC2)n1`, 579 s.
For `CN1CC(=O)N(CC(=O)Nc2ccc(Cl)c(C(F)(F)F)c2)c2ccccc2C1=O` the value was 826 s; for `O=C(NC1CCCC1)N1CCC(c2noc(-c3ccccc3)n2)C1` (stereo unspecified), 868 s.
For `CCC(C(=O)N1CCN(c2cc(-c3ccccc3)ncn2)CC1)c1ccccc1` (stereo unspecified) the value was 649 s.
The compound `Cc1ccc2nc(NC(=O)CN3CCC(C(N)=O)CC3)sc2c1` came in with an RP-LC retention time of 592 s.
Compound `Cc1nc(-c2csc(S(=O)(=O)N3CCC(C(=O)Nc4ccc(Cl)cc4F)CC3)c2)no1` displayed an RP-LC retention time of 990 s.
For `CC(C)CN1CCN(Cc2nc(-c3ccc(N4CCSCC4)nc3)no2)CC1` the value was 635 s.
For `CCOc1ccc(S(=O)(=O)N2CCC(c3noc(-c4ccc(C)cc4)n3)CC2)cc1` the value was 1240 s; for `N#Cc1cccc(-c2cn3c(n2)N(C(=O)COc2ccccc2)CCC3)c1`, 961 s; for `Cc1nc(C2CCOCC2)n(C2CCN(S(=O)(=O)c3ccc(F)cc3F)C2)n1` (stereo unspecified), 712 s.
The value for `COc1ccccc1CNC(=O)c1cn2ccccc2n1` was 665 s.
In turn, `COc1ccc(-c2nnc(-c3ccccc3)o2)cc1S(=O)(=O)NC(C)(C)CO` displayed an RP-LC retention time of 759 s.
`Cc1ccc(-c2cc3n(n2)CCCN(C(=O)c2cccc(C#N)c2)C3)cc1`: the RP-LC retention time was determined as 862 s.
In turn, `Cc1nc([C@@H]2CN(C(=O)c3cc(C4CC4)[nH]n3)C[C@H]2C(N)=O)n[nH]1` showed an RP-LC retention time of 540 s.
Compound `CN(C)Cc1ccc(S(=O)(=O)n2ccc(/C=C/C(=O)NO)c2)cc1` had an RP-LC retention time of 936 s.
The value for `NC(=O)c1ccc(Oc2ccc(C(N)=O)cc2)cc1` was 654 s.
As to `Cc1cc(C)n2nc(SCC(=O)NCc3cccs3)nc2n1`, the RP-LC retention time is 647 s.
The value for `O=C(NCc1ccc2c(c1)OCO2)c1ccc(OCC(=O)C2CC2)cc1` was 736 s.
`O=C(Nc1ccccc1F)N1CCC(N2C(=O)C3(CCCCC3)C2c2ccccc2)CC1` (stereo unspecified) had an RP-LC retention time of 940 s.
With `CCN(CC)c1ccc(NC(=O)C2CCCN(c3nc4ccccc4nc3C(F)(F)F)C2)c(C)c1` (stereo unspecified), the RP-LC retention time was 825 s.
For `COc1ccc(OC)c(-c2cc(C(=O)N3CCC(C(=O)NCC(F)(F)F)CC3)[nH]n2)c1` the value was 705 s; for `COc1cc(NC(=O)CN2C(=O)CCc3cc(Br)ccc32)cc(OC)c1`, 898 s; for `CC(C)c1ccc(S(=O)(=O)N2CCCC2c2nc(-c3ccc(F)cc3)no2)cc1` (stereo unspecified), 1260 s.
The value for `O=C(NC1CC1)c1cccc2c1CCN2C(=O)c1ccc(F)cc1` was 739 s; that for `CCSc1nnc(NC(=O)Cc2csc(NC(=O)c3ccc4c(c3)OCO4)n2)s1` was 804 s; that for `Cc1cc(NC(=O)COc2coc(CN3CCN(C(=O)c4ccco4)CC3)cc2=O)no1` was 549 s.
For `CCn1cc(C2=CCN(C(=O)Nc3ccc(OC)c(OC)c3)CC2)c2cccnc21` the value was 759 s; for `CCc1ccc(S(=O)(=O)N2C[C@@H](F)C[C@H]2C(=O)N2CCOCC2)cc1`, 745 s; for `CCCCNc1nc(-c2ccc(OC)cc2)nc2ccccc12`, 807 s.
The compound `CCCNC(=O)c1cn(-c2ccc(NC(=O)CC)cn2)cn1` gave an RP-LC retention time of 636 s.
For `CCOc1ccc(/C=C/C(=O)Nc2nc(-c3ccc4c(c3)N(C)C(=O)CO4)cs2)cc1OC` the value was 985 s; for `CSc1ccccc1NC(=O)c1cc2nc(C)ccc2o1`, 756 s.
The value for `O=C(c1ccc(Cl)cc1Cl)N1CCN(c2cc(-c3ccc(Cl)cc3)[nH]n2)CC1` was 981 s; that for `CCNC(=O)c1nccnc1NC(=O)c1ccccc1` was 743 s; that for `CS(=O)(=O)N1CCCc2ccc(NS(=O)(=O)CCN3C(=O)CCCC3=O)cc21` was 622 s.
In the case of `C(=C\c1cccs1)/c1nc(-c2cccc(-c3ccn[nH]3)c2)no1`, the RP-LC retention time is 1010 s.
For `O=c1c2cc(-c3cccs3)nn2ccn1Cc1noc(CN2CCCCCCC2)n1` the value was 688 s; for `CCn1nccc1-c1nc(C2CC(=O)N(c3ccc(C)cc3)C2)no1` (stereo unspecified), 680 s; for `Cc1cccc(Oc2nccnc2N2CCC(C(=O)NC3CCCCCC3)CC2)c1`, 1110 s.
`CC1CCN(S(=O)(=O)N2CCCC(C(=O)NC3CCN(Cc4ccccc4)CC3)C2)CC1` (stereo unspecified) registered an RP-LC retention time of 713 s.
The value for `O=C1CCCc2cc(S(=O)(=O)NCCCN3CCN(Cc4ccccc4)CC3)ccc2N1` was 581 s; that for `Cc1ccccc1NS(=O)(=O)c1cc2n(c1)CCN(CC(C)C)C2=O` was 795 s; that for `O=C(Nc1nnc(Cc2cccs2)o1)c1ccc(S(=O)(=O)N2CCOCC2)cc1` was 691 s.
The value for `CCN1CCN(c2cc(C)c3cc(NC(=O)COc4ccc(OC)cc4)ccc3n2)CC1` was 597 s; that for `CCCc1nc(NCc2cc(OC)ccc2OC)ncc1C(=O)O` was 863 s; that for `COc1cccc(NC(=O)N2CCCC2c2nc(-c3cccc(C)c3)no2)c1` (stereo unspecified) was 877 s.
For `CCOc1cccc(=O)c2c(C)n(-c3nc(-c4ccc(OC)cc4)c(C)s3)c(C)c12` the value was 1160 s.
In the case of `COc1ncc(C(=O)N2CCCCC2)cn1`, the RP-LC retention time is 628 s.
The value for `O=C(c1cn(-c2cc(Nc3ccccc3)ncn2)cn1)N1CCN(c2ncccn2)CC1` was 749 s; that for `Cn1nc(-c2nnc(-c3ccccc3F)o2)c2c1CCN(S(=O)(=O)c1ccc3c(c1)CCC3)C2` was 1010 s.
The value for `Cc1nn(-c2ccc(N3CCCCC3)nn2)c(C)c1CCC(=O)NCCCc1ccco1` was 665 s; that for `Cc1ccc(CNC(=O)C2CCCN(S(=O)(=O)c3cc(-c4noc(C)n4)cs3)C2)cc1` (stereo unspecified) was 974 s.
The value for `CCSc1nc(-c2ccccc2)c(NC(=O)c2ccc(S(=O)(=O)N(C)C)cc2)s1` was 1000 s.
`Cc1noc(-c2cccc(OC3CN(C(=O)NCC(C)C)C3)c2)n1` gave an RP-LC retention time of 808 s.
Regarding `Cc1ccc(NC(=O)CSc2ccc(N3CCCC(C(=O)NC4CC4)C3)nn2)c(C)c1` (stereo unspecified), the RP-LC retention time stood at 625 s.
The value for `CCn1cc(-c2nc(CC(=O)Nc3ccc(Cl)cc3F)cs2)c2cccnc21` was 1100 s; that for `O=C(Nc1ccccc1C(F)(F)F)N1CCc2nc[nH]c2C1` was 558 s.
The value for `CN(C)c1ccc(NS(=O)(=O)c2c(F)c(F)c(F)c(F)c2F)cc1` was 869 s; that for `CCCOc1nn(CCC)cc1C(=O)Nc1nccs1` was 865 s; that for `Cc1ccccc1Nc1c(-c2ccccc2O)nc2ccc(Br)cn12` was 1050 s.
The value for `O=C(Cc1cccc(F)c1)N1CCC(n2cnnc2-c2ccccc2)C1` (stereo unspecified) was 686 s; that for `CC(C)c1cc(N2CCN(C(=O)c3ccc(N(C)C)cc3)CC2)nc2nncn12` was 606 s; that for `O=C(Cc1cccs1)Nc1c(C(=O)N2CCN(c3ccccn3)CC2)oc2ccccc12` was 675 s.
In turn, `Cc1cn(C)c(CC(=O)NCc2ccco2)c1C(=O)O` came in with an RP-LC retention time of 671 s.
The value for `O=C(NCc1ccccc1)c1nc(-c2ccncc2)cs1` was 575 s.
For `COc1ccc(NC(=O)Cc2csc3nc(-c4cccc(Br)c4)cn23)cc1OC` the value was 882 s; for `Cc1ccc(NC(=O)Cn2nc(C)cc2C(=O)Nc2ccc3c(c2)OCCO3)cc1`, 834 s.
With `COC(=O)c1ccc(NS(=O)(=O)c2cc3n(c2)CCN(C(C)C)C3=O)cc1`, the RP-LC retention time was determined as 731 s.
The value for `Cc1ccc(S(=O)(=O)c2ccc(C(=O)N3CCN(c4ccccn4)CC3)cn2)cc1C` was 658 s; that for `COc1ccc(NC(=O)CCOc2ccccc2)cc1` was 763 s.
Regarding `CC(C)(CO)NC(=O)Cc1ccc(NC(=O)C2(c3ccc(F)cc3)CC2)cc1`, the RP-LC retention time was determined as 734 s.
With `CN(CCc1noc(-c2ccc(F)cc2)n1)C(=O)NCCc1ccccc1`, the RP-LC retention time is 909 s.
For `COc1ccc(S(=O)(=O)N2CCc3nc(-c4ccc(F)cc4)ncc3C2)cc1Cl` the value was 1140 s; for `COc1ccc(NC(=O)N2CCN(c3nc4cccnc4s3)CC2)cc1`, 690 s.
For `CCn1c(-c2ccccc2)cc(C(N)=O)c1C` the value was 591 s; for `CN(CC1(C)CCOCC1)C(=O)Cc1c(F)cccc1Cl`, 863 s.
The value for `O=S(=O)(c1ccc(-c2nnc(C3CC3)o2)o1)N1CCCC1` was 771 s; that for `CCOC1CCOC2(CCN(C(=O)c3ccco3)CC2)C1` (stereo unspecified) was 691 s.

These data come from the METLIN SMRT retention time set (Domingo-Almenara et al. 2019).
